EPA's ToxValDB 9.5 (doi:10.2903/j.efsa.2018.5126)
Values after ≈ are worked out from the molar mass of the structure shown.

Key:
Rattus norvegicus = details: for LD50: acute, mortality
Colinus virginianus = details: chronic
Anas platyrhynchos = details: acute; oral; unspecified; mortality
Bibionidae = details: chronic/long-term; duration: 28 days
Neomysis kadiakensis = details: chronic/long-term; duration: 28 days; reproduction
Landoltia sp. = details: chronic/long-term; duration: 7 days; frond number
Tagia sp. = details: chronic/long-term; duration: 56 days; growth
Oncorhynchus mykiss = details: acute; duration: 96 hours; mortality
Apis mellifera = details: acute, mortality
Navicula pelliculosa = details: acute; duration: 72 hours; growth
Oryctolagus sp. = details: reproduction developmental; body weight
Aphidius rhopalosiphi = assay: LR50; higher = less toxic; details: acute; mortality

| Compound | LD50 (Rattus norvegicus) | NOAEL (Rattus norvegicus; reproduction developmental, body weight) | NOAEL (Colinus virginianus) | LD50 (Anas platyrhynchos) | NOEC (Bibionidae) | NOEC (Neomysis kadiakensis) | NOAEL (Rattus norvegicus; chronic, duration: 26 months, organ weight) | NOAEL (Rattus norvegicus; reproduction developmental, histopathology: nonneoplastic) | NOAEL (Rattus norvegicus; subchronic, duration: 90 days, oral, histopathology: nonneoplastic) | NOEC (Landoltia sp.) | NOEC (Tagia sp.) | LC50 (acute, duration: 96 hours, mortality) | NOEC (chronic) | LC50 (Oncorhynchus mykiss) | LD50 (Apis mellifera; dermal) | LD50 (Apis mellifera; oral, unspecified) | NOEC (Navicula pelliculosa) | NOAEL (Oryctolagus sp.) | LR50 (Aphidius rhopalosiphi) |
| --- | --- | --- | --- | --- | --- | --- | --- | --- | --- | --- | --- | --- | --- | --- | --- | --- | --- | --- | --- |
| N#Cc1c(O)c(Cl)c(Cl)c(C#N)c1Cl [4-Hydroxy-2,5,6-trichloroisophthalonitrile] | 242 mg/kg-day | 1.5 mg/kg-day | 10.1 mg/kg-day | 158 mg/kg-day | – | – | – | – | – | – | – | – | – | – | – | – | – | – | – |
| N#Cc1c(Cl)c(Cl)c(Cl)c(C#N)c1Cl [Chlorothalonil] | > 5000 mg/kg-day | – | – | > 2000 mg/kg-day | 0.04 mg/L | 0.0004 mg/L | 1.8 mg/kg-day | < 22.6 mg/kg-day | 1.5 mg/kg-day | 0.187 mg/L | 0.75 mg/kg | 0.0107 µg/mL (≈ 0.0402 µM) | 0.003 mg/L | 0.017 µg/mL (≈ 0.0639 µM) | > 40 µg/piece | > 40 µg/piece | 0.013 mg/L | < 5 mg/kg-day | > 262 g/ha |
